US9816103B2, “Methods of enhancing the resistance of plants to bacterial pathogens” (priority 2008, dated 2017)
No end group written: not given here.

Experiments:
[1] = tested on: wild-type leaves of Arabidopsis thaliana Col-0; test: Oxidative burst induced by elf18 peptides from phytopathogenic bacteria; assay type: cell-based; conditions: Col-0 leaves; relative to E. coli elf18 positive control
EFR plants (#18 Nb) = test: Early and late defense marker gene expression by RT-PCR, EFR Nb seedlings; assay type: in vivo, Nicotiana benthamiana; conditions: 100 nM peptide, 0, 30, 60, 180 min
Experimental: (§1) Wild-type and #18 Nb were grown for one week on agar plates, then transferred to liquid culture and were grown for a further week. The expression of PAMP-induced genes was monitored over a time course. Seedlings were treated with 100 nM elf18 or flg22 for 0, 30, 60 or 180 minutes, and frozen in liquid nitrogen.
(§2) In brief: four elicited seedlings were thoroughly ground directly in the supplied extraction buffer in Eppendorf tubes using a pestle on an IKA RW 20 stirrer. Total RNAs were extracted using the Qiagen Rneasy Plant Mini kit. The quality of the extracted RNA was confirmed by running an ethidium bromide-stained agarose gel to reveal rRNAs. DNase treatment was performed using TURBO DNA-free kit (Ambion) and the concentration of total RNA was then measured using a Nanodrop. First strand cDNA synthesis was performed using SuperScript II Reverse Transcriptase (Invitrogen) in combination with Oligo(dT) prime on 2 μg of total RNA. One μl of cDNA was used in PCR under the following conditions: 95° C. 2 min; [95° C. 45 sec; 58° C. 45 sec; 55° C. 30 sec; 72° C. 1.5 min]×25; 72° C. 5 min. The genes used as defense markers were: CYP72D2 (cytochrome P450), FLS2 (receptor kinase for flg22), ACRE132 (putative RING finger protein) and WRKY22 (transcription factor). As loading control the constitutively expressed EF-1α housekeeping gene was also amplified.

wild-type Nb [2] = test: Early and late defense marker gene expression by RT-PCR, wild-type Nb seedlings; assay type: in vivo, Nicotiana benthamiana; conditions: 100 nM peptide, 0, 30, 60, 180 min
Experimental: as §1, §2

efr plants = test: Seedling growth inhibition (fresh weight), Arabidopsis efr; assay type: in vivo, Arabidopsis thaliana; conditions: 0.1-1000 nM peptide, one week
Experimental: (§3) Wild-type, #16 and #18 Nb as well as Col and efr Arabidopsis thaliana seedlings were grown for one week onMS 1% sucrose agar plates, then transferred to liquid culture and were grown for one week in a serial dilution or elf18 or flg22. Dilutions of 0.1, 1, 10, 100 and 1000 nM were used for all five plant lines. Seedlings (n=4) were blotted on absorbent paper and their fresh weight was measured.

wild-type Nb [3] = test: Oxidative burst, luminol-based assay, wild-type Nb leaf discs; assay type: cell-based, Nicotiana benthamiana; conditions: 100 nM peptide
Experimental: (§4) To measure the production of reactive oxygen species (ROS) in leaf tissue, size #1 leaf discs (Nb; n=12, tomato; n=8) were floated overnight in water. Each disc was then transferred to a well containing an assay mix of luminol (200 μM) and peroxidase (20 μg/ml) in 100 μl water. Each well was then treated with either: assay mix, 100 nm elf18, or 100 nm flg22. Luminescence in a 96-well plate was subsequently measured using a Flash Varioskan luminometer.

Wild-type Nb plants = test: Seedling growth inhibition (fresh weight), wild-type Nb; assay type: in vivo, Nicotiana benthamiana; conditions: 0.1-1000 nM peptide, one week
Experimental: as §3

[4] = tested on: EFR plants (Nb expressing transgenic AtEFR); test: Seedling growth inhibition (fresh weight), EFR Nb; assay type: in vivo, Nicotiana benthamiana; conditions: 0.1-1000 nM peptide, one week
Experimental: as §3

[5] = tested on: primary transformant tomato plants; test: Oxidative burst, luminol-based assay, AtEFR tomato primary transformants; assay type: cell-based, Solanum lycopersicum; conditions: 100 nm peptide; ten positive tomato lines; data not shown
Experimental: as §4, with “tomato and potato;” for “tomato;”
The detection of an oxidative burst is a relatively simple and reliable assay for defense activation. Cumulative luminescence was recorded for each plant over a time course of 40 minutes. […] Several other transformants were unable to express functional AtEFR as they give very little response to elf18, yet are able to respond to flg22 elicitation (data not shown). Other transformants, perhaps due to old age, were unable to respond to elf18 or flg22 treatment (data not shown). The 10 positive lines appear to have acquired EF-Tu responsiveness in this assay. Therefore seeds were harvested to grow homozygous lines for use in further assays to confirm of these initial results.

EFR (#18) Nb plants = test: Oxidative burst, luminol-based assay, EFR transgenic Nb leaf discs; assay type: cell-based, Nicotiana benthamiana; conditions: 100 nM peptide
Experimental: as §4

Wild-type Col plants = test: Seedling growth inhibition (fresh weight), Arabidopsis wild-type Col; assay type: in vivo, Arabidopsis thaliana; conditions: 0.1-1000 nM peptide, one week
Experimental: as §3

[6] = tested on: transgenic EFR potatoes (Desiree); test: Oxidative burst, luminol-based assay, transgenic EFR potatoes; assay type: cell-based, Solanum tuberosum; conditions: 100 nm peptide; positive potato lines; data not shown
Experimental: as §4, with “tomato and potato;” for “tomato;”
Oxidative burst assays were also conducted with transgenic EFR potatoes (Desiree).

EFR Nb = test: Callose deposition, aniline blue staining, EFR Nb leaves; assay type: in vivo, Nicotiana benthamiana; conditions: 100 nM peptide infiltrated, ~16 hours, data not shown
Experimental: A solution of either water, 100 nM elf18, or 100 nM flg22 was used to infiltrate leaves of 4-week old wild-type and EFR Nb. Size #3 leaf discs (n=8) were sampled after ˜16 hours and destained in methanol overnight. Discs were rinsed in water, then left to stain overnight in a solution of 0.05% aniline blue in 50 mM phosphate buffer pH 8.5. Callose deposition at the plant cell periphery could then be viewed under a fluorescence microscope.

Substance	eliciting activity (oxidative burst) [1]	defense marker gene induction (EFR plants (#18 Nb))	defense marker gene induction (wild-type Nb [2])	seedling growth inhibition (fresh weight) (efr plants)	release of reactive oxygen species (luminescence) (wild-type Nb [3])	seedling growth inhibition (fresh weight) (Wild-type Nb plants)	seedling growth inhibition (fresh weight) [4]	burst of ROS (cumulative luminescence over 40 minutes) [5]	release of reactive oxygen species (luminescence) (EFR (#18) Nb plants)	seedling growth inhibition (fresh weight) (Wild-type Col plants)	burst of ROS [6]	callose deposition (EFR Nb)
elf18 Xanthomonas campestris pv campestris 8004 and B100: synthetic elf18 peptide derived from EF-Tu of Xanthomonas campestris pv. campestris 8004 and B100 (MARAKFLREKLHVNVGTI; Xanthomonas campestris pv. campestris 8004)	very low eliciting activity	–	–	–	–	–	–	–	–	–	–	–
elf18 Pseudomonas syringae pv. syringae DC3000: synthetic elf18 peptide derived from EF-Tu of Pseudomonas syringae DC3000 (pv. tomato per b37) (MAKEKFDRSLPHCNVGTI; ends and bridges not checked)	very low eliciting activity	–	–	–	–	–	–	–	–	–	–	–
elf18: EF-Tu epitope elf18: region of 18 amino-acids at the N-acetylated terminus of eubacterial EF-Tu recognized by EFR (Ac-MARAKFLREKLHVNVGTI)	–	marker gene expression which is at least as strong as under flg22 treatment	unable to elicit a significant amount of expression	insensitive	never revealed a burst of ROS	able to grow in the presence of up to 1000 nM elf18	responsive	considerable burst of ROS	peak of luminescence corresponding to a burst of ROS	decreasing growth as elf18 concentration increases	considerable burst of ROS	stronger response
